Experimental findings from patent US20080221084A1, “METHOD FOR REDUCING INFARCTION USING VASOPRESSIN ANTAGONIST COMPOUNDS, AND COMPOSITIONS AND COMBINATIONS THEREFOR” (OTSUKA PHARMACEUTICAL CO., LTD., priority 2006, published 2008) are described below.

Assay [1] has as its system rats with hypotonic hyponatremia (model of SIADH). The experiment in a line: DDAVP-induced hypotonic hyponatremia in rats (model of SIADH): plasma sodium and osmolarity. The following applies: day 14, end of experiment; DDAVP infused 1 ng/h s.c. for 14 days, liquid diet; Mean ±SD. Format: in vivo, rat (male Sprague-Dawley).
Text: The condition of hypotonic hyponatremia was created by infusing a selective vasopressin V2 agonist, DDAVP, into rats using an osmotic minipump implanted subcutaneously for 14 days in animals with access to only liquid food (a model of SIADH: syndrome of inappropriate antidiuretic hormone secretion). […] Rats either received a daily oral administration of tolvaptan or vehicle in an escalating dosing regime.
Tolvaptan was supplied as a spray-dried formulation, which is a mixture of tolvaptan (free form) and hydroxypropylcellulose (HPC-SL) at a ratio of 2:1. Therefore, the amount of tolvaptan (spray-dried form) was 1.5 times that of tolvaptan (free form). Tolvaptan was suspended in 1% hydroxypropylmethylcellulose solution.
The V2 agonist DDAVP ([deamino-Cys1, D-Arg8]-vasopressin was dissolved in saline (2 μg/mL).
Male Sprague-Dawley rats weighing 150-175 grams were used. Rats had access to feed and tap water. From day −3 (see the timeline in FIG. 1), rats were fed with a customized liquid food (RD-LD89 All-Purpose Liquid Diet Premix, Research Diets, Inc, New Brunswick, N.J.) and no additional food or water was provided. The liquid diet was mixed with water according to manufacturer's instructions.
Rats were acclimated for 3 days to liquid food before the study. Hyponatremia was induced by continuous subcutaneous infusion of 1 ng/h of DDAVP per animal using osmotic minipumps (infusion rate: 0.5 μL/h, ALZET model 2002, DURECT Corporation, Cupertino, Calif.) for 14 days (see FIG. 1). On day 0 when the osmotic minipump was implanted, rats were anesthetized by an intraperitoneal injection of a mixture of ketamine (40 mg/kg) and xylazine (5 mg/kg). The following procedure of implanting minipumps was performed using aseptic techniques. An area 4 cm long and 3 cm wide on the back of the animal (slightly posterior to the scapulae) was shaved and cleaned. A 1 cm cross mid-scapular incision was made. A hemostat was inserted into the incision and a pocket for the pump was created by opening and closing the jaw of the hemostat to spread the subcutaneous tissue. The pump (length 3 cm, diameter 0.7 cm and 0.4 grams) was inserted into the pocket, delivery portal first. The wound was closed with wound clips, and animals were placed on a heating pad for recovery, and eventually returned back to the cage.
On day 2 after the surgery, animals were switched to a nutritionally complete liquid food diet containing 14% dextrose (see FIG. 1). No additional water or solid food was provided.
Starting from day 4, an escalating dosing regime of tolvaptan or vehicle was used from 0.25 mg/kg to 10 mg/kg daily.
In assay [2] the test system is regional cardiac ischemia/reperfusion in rat heart. Description: 20 minutes regional cardiac ischemia and 3 hours reperfusion in hyponatremic rats: myocardial infarction, risk size, hemodynamics. Format: in vivo, rat (male Sprague-Dawley). The following applies: 20 min regional ischemia, 3 h reperfusion on day 14, compared with saline-infused or vehicle-treated rats, TTC staining. The text has this: The condition of hypotonic hyponatremia was created by infusing a selective vasopressin V2 agonist, DDAVP, into rats using an osmotic minipump implanted subcutaneously for 14 days in animals with access to only liquid food (a model of SIADH: syndrome of inappropriate antidiuretic hormone secretion). Control rats had the same surgical implantation of an osmotic minipump filled with saline. Rats either received a daily oral administration of tolvaptan or vehicle in an escalating dosing regime. At the end of the 14-day period, rats were subjected to 20 minutes of regional cardiac ischemia and 3 hours of reperfusion, and myocardial infarction was determined. At the final day of the study (day 14), rats were anesthetized, and the chest was open. Hearts were subjected to 20 minutes of regional ischemia followed by 3 hours of reperfusion. On day 14, rats were anesthetized with pentobarbital (30 mg/kg) by an intraperitoneal injection. Once anesthesia was induced, a tracheotomy was performed, and the trachea was cannulated and the animal was attached to a respirator. An oxygen supplement was fed into the tracheal line to maintain the pO2 above 100 mmHg. A cannula was inserted into the right carotid artery to monitor blood pressure and heart rate. The heart was exposed through a left thoracotomy in the fourth intercostal space, and the pericardium opened. A snare was placed around a major branch of the left coronary artery of the animal using a 5-0 suture. The suture ends were passed through a small segment of pliable polyethylene tubing to form a snare. Regional ischemia was induced by pulling the silk tightly through the tubing and clamping the tube with a hemostat. Experiments involved 20 minutes of ischemia and 3 hr reperfusion, which was achieved by releasing the snare. Myocardial ischemia and reperfusion were confirmed by the observation of regional cyanosis and hyperemia, respectively. […] Infarct size was determined by planimetry and expressed as a percentage of risk area infarcted. Data were expressed as the Mean ±SD (standard deviation). […]

As for `Cc1ccccc1C(=O)Nc1ccc(C(=O)N2CCCC(O)c3cc(Cl)ccc32)c(C)c1` (stereo not shown) [Tolvaptan, 7-chloro-5-hydroxy-1-[2-methyl-4-(2-methylbenzoyl-amino)benzoyl]-2,3,4,5-tetrahydro-1H-benzazepine], in assay [1], the plasma osmolarity turned out to be 304±8 mOsm/kg and the plasma sodium stood at 140 ± 3 mmol/L. The “myocardial infarct size (percentage of risk area infarcted)” value in assay [2] was “reduced the infarct size in DDAVP-infused rats to a level similar to that in saline-infused rats”. The “myocardial infarct size (percentage of risk area infarcted)” value in assay [2] (listed as tolvaptan) is recorded as “much smaller degree as compared with that in vehicle-treated rats”.
In assay [1], `NC(=O)CC[C@@H]1NC(=O)[C@H](Cc2ccccc2)NC(=O)[C@H](Cc2ccc(O)cc2)NC(=O)CCSSC[C@@H](C(=O)N2CCC[C@H]2C(=O)N[C@H](CCCN=C(N)N)C(=O)NCC(N)=O)NC(=O)[C@H](CC(N)=O)NC1=O` [DDAVP, [deamino-Cys1, D-Arg8]-vasopressin] came in with a plasma osmolarity of 264±6 mOsm/kg and a plasma sodium of 114 ± 7 mmol/L. In addition, in assay [2], the “myocardial infarct size (percentage of risk area infarcted)” value is reported as “more than double”.
